ChEMBL document CHEMBL1143726, “Indole alkaloids produced by a marine fungus isolate of Penicillium janthinellum Biourge” (2007)
The source made the active and inactive calls. The calls are words filed in the database; no cut-off is given here.

Key:
[1] = tested on: C1 41; experiment: Cytotoxicity against mouse JB6 C1 41 cells up to 200 uM by MTS assay; type: functional, cell-based
[2] = tested on: HL-60; experiment: Induction of apoptosis in human HL60 cells at 100 uM after 24 hrs by flow cytometry relative to control; type: functional
[3] = Inhibition of EGF-induced malignant transformation of mouse JB6 C1 41 cells in soft agar; type: functional

**Q.** With CC1(C)C=C2c3cc4[nH]c5c(c4cc3[C@@H](O)[C@@H]2C(C)(C)O1)C[C@@H]1CC[C@@]2(O)C3=CC(=O)[C@@H]4O[C@@]3(CC[C@]2(C)[C@@]51C)OC4(C)C [SHEARININE D] as the compound, how does the Activity [1] read?
**A.** inactive

**Q.** What about the Activity [2] of the same compound?
**A.** 39%

**Q.** With CC1(C)C=C2c3cc4[nH]c5c(c4cc3C[C@@H]2C(C)(C)O1)C[C@@H]1CC[C@@]2(O)C3=CC(=O)[C@@H]4O[C@@]3(CC[C@]2(C)[C@@]51C)OC4(C)C [SHEARININE A] as the compound, how does the Activity [1] read?
**A.** inactive

**Q.** What about the Activity [2] of the same compound?
**A.** 10%

**Q.** Which Activity [1] does the source give for CC1(C)C=C2c3cc4[nH]c5c(c4cc3[C@H](O)[C@@H]2C(C)(C)O1)C[C@@H]1CC[C@@]2(O)C3=CC(=O)[C@@H]4O[C@@]3(CC[C@]2(C)[C@@]51C)OC4(C)C [SHEARININE E] here?
**A.** inactive

**Q.** What about the INCC50 [3] of the same compound?
**A.** 13 µM

**Q.** What about the Activity [2] of the same compound?
**A.** 34%

**Q.** With CC(C)=CCc1cc2[nH]c3c(c2cc1CC=C(C)C)C[C@@H]1CC[C@@]2(O)C4=CC(=O)[C@@H]5O[C@@]4(CC[C@]2(C)[C@@]31C)OC5(C)C as the compound, how does the Activity [1] read?
**A.** inactive
